Data from US6737383B1, “Herbicidal oxadiazolidines” (priority 1999, dated 2004).

Tests used:
[1] = test system: crabgrass; assay: Test B pre/postemergence crabgrass; assay type: in vivo, Digitaria sanguinalis
Summary of the method: (§1)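 Response is a visual 0-to-10 score relative to untreated plants, where 0 means no effect and 10 means complete control, taken twelve to sixteen days after application. Treatments went onto soil at planting and onto foliage of 1- to 4-leaf plants, using a surfactant-containing non-phytotoxic solvent.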

[2] = test system: purple nutsedge; assay: Test B pre/postemergence purple nutsedge; assay type: in vivo, Cyperus rotundus
Summary of the method: as §1

[3] = test system: bamyardgrass; assay: Test B flood test barnyardgrass; assay type: in vivo, Echinochloa crus-galli; conditions: for Plant response rating, Barnyardgrass (0 to 10 scale, 0 is no effect, 10 is complete control) / Barnyardgrass plant response rating (0 to 10 scale, 0 is no effect, 10 is complete control): visual evaluation after twelve to sixteen days; for Barnyardgrass plant response rating (0 to 10 scale, 0 is no effect, 10 is complete control): under heading Pre-emergence
Summary of the method: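 Read-out is a visual response score from 0 (no effect) to 10 (complete control), assigned by comparison with untreated controls. Treatment was applied at the 2-leaf stage, and plants stayed in the greenhouse for twelve to sixteen days before scoring.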

[4] = Postemergence, Rate 250 g/ha, scale 0 to 10, 0 is no effect, 10 is complete control
[5] = Postemergence, Rate 500 g/ha, scale of 0 to 10 where 0 is no effect and 10 is complete control
[6] = Preemergence, Rate 62 g/ha, scale 0 to 10 (0 no effect, 10 complete control)
[7] = Preemergence, Rate 125 g/ha, scale of 0 to 10 where 0 is no effect and 10 is complete control
[8] = Preemergence, Rate 250 g/ha, scale 0 to 10, 0 is no effect, 10 is complete control
[9] = Preemergence, Rate 500 g/ha, scale 0 to 10, 0 is no effect, 10 is complete control
[10] = Rate 62 g/ha, Postemergence, scale of 0 to 10 where 0 is no effect and 10 is complete control
[11] = Postemergence (flood test), Rate 125 g/ha, scale 0 to 10, 0 is no effect, 10 is complete control
[12] = Postemergence section (flood test species), Rate 500 g/ha, scale of 0 to 10 where 0 is no effect and 10 is complete control
[13] = Rate 62 g/ha, Postemergence (flood test species), scale of 0 to 10 where 0 is no effect and 10 is complete control
[14] = flood test species, listed under Postemergence, Rate 250 g/ha, scale 0 to 10, 0 is no effect, 10 is complete control
[15] = Postemergence, Rate 250 g/ha, scale 0 to 10
[16] = Rate 125 g/ha, Postemergence, scale 0 to 10, 0 is no effect, 10 is complete control
[17] = Preemergence, Rate 62 g/ha, scale of 0 to 10 where 0 is no effect and 10 is complete control
[18] = Rate 62 g/ha, Postemergence, scale 0 to 10 (0 no effect, 10 complete control)
[19] = Rate 62 g/ha, flood test species, Pre-emergence
[20] = Rate 125 g/ha, flood test species
[21] = Rate 250 g/ha, Pre-emergence (flood test species), scale 0 to 10, 0 is no effect, 10 is complete control
[22] = Rate 500 g/ha, Pre-emergence, flood test species, scale 0 to 10 (0 no effect, 10 complete control)
[23] = Postemergence, Rate 125 g/ha, scale of 0 to 10 where 0 is no effect and 10 is complete control
[24] = Postemergence, Rate 250 g/ha, scale of 0 to 10, 0 is no effect, 10 is complete control
[25] = Preemergence, Rate 250 g/ha, scale 0 to 10 (0 no effect, 10 complete control)
[26] = Rate 1000 g/ha, Preemergence, scale 0 to 10 (0 no effect, 10 complete control)
[27] = Preemergence, Rate 500 g/ha, scale of 0 to 10 where 0 is no effect and 10 is complete control
[28] = Rate 500 g/ha, Pre-emergence section of Table B, 0 to 10 scale (0 no effect, 10 complete control)
[29] = Postemergence, Rate 62 g/ha, scale 0 to 10, 0 is no effect, 10 is complete control

SMILES	Crabgrass plant response rating [1, 5]	Plant response rating, Crabgrass [1, 6]	Plant response rating, Crabgrass [1, 7]	Crabgrass plant response rating [1, 8]	Crabgrass plant response rating [1, 9]	Nutsedge plant response rating [2, 5]	Plant response rating, Nutsedge [2, 7]	Nutsedge plant response rating [2, 8]	Nutsedge plant response rating [2, 9]	Crabgrass plant response rating [1, 15]	Nutsedge plant response rating [2, 15]	Nutsedge plant response rating [2, 16]	Plant response rating, Crabgrass [1, 17]	Crabgrass plant response rating [1, 18]	Plant response rating, Nutsedge [2, 17]	Nutsedge plant response rating [2, 18]	Plant response rating, Barnyardgrass (0 to 10 scale, 0 is no effect, 10 is complete control) [3, 19]	Barnyardgrass plant response rating (0 to 10 scale, 0 is no effect, 10 is complete control) [3, 20]	Barnyardgrass plant response rating [3, 21]	Barnyardgrass plant response rating [3, 22]	further results
CCOC(=O)C=C(Cn1c(=O)on(C(=O)N(c2ccc(F)cc2)C(C)C)c1=O)OCC [Compound 396]	2	0	7	10	10	0	0	0	0												Plant response rating, Crabgrass ([1]; Postemergence, Rate 125 g/ha, scale 0 to 10, 0 is no effect, 10 is complete control): 0; Plant response rating, Crabgrass [1, 4]: 2; Crabgrass plant response rating [1, 10]: 0; Plant response rating, Nutsedge [2, 4]: 0; Plant response rating, Nutsedge [2, 6]: 0; Nutsedge plant response rating [2, 10]: 0; Plant response rating, Barnyardgrass [3, 11]: 0; Barnyardgrass plant response rating [3, 12]: 0; Barnyardgrass plant response rating [3, 13]: 0; Plant response rating, Barnyardgrass [3, 14]: 0
CC(=O)C(C)n1c(=O)on(C(=O)N(c2ccc(F)cc2)C(C)C)c1=O (stereo not shown) [Compound 400]	9	6	9	10	10	0	0	0	0												Plant response rating, Crabgrass [1, 4]: 6; Crabgrass plant response rating [1, 10]: 0; Plant response rating, Nutsedge [2, 4]: 0; Plant response rating, Nutsedge [2, 6]: 0; Nutsedge plant response rating [2, 10]: 0; Plant response rating, Barnyardgrass [3, 11]: 0; Barnyardgrass plant response rating [3, 12]: 0; Barnyardgrass plant response rating [3, 13]: 0; Plant response rating, Barnyardgrass [3, 14]: 0
CC(C)N(C(=O)n1oc(=O)n(C(C)C#N)c1=O)c1ccc(F)cc1F (stereo not shown) [Compound 432]	6	3	5	8	9	0	0	0	0	6	0	0									Crabgrass plant response rating [1, 10]: 0; Crabgrass plant response rating [1, 16]: 0; Plant response rating, Nutsedge [2, 6]: 0; Barnyardgrass plant response rating ([3]; Postemergence block (flood test species), Rate 250 g/ha, scale 0 to 10): 0; Barnyardgrass plant response rating [3, 12]: 0; Barnyardgrass plant response rating [3, 13]: 0; Barnyardgrass plant response rating ([3]; Rate 125 g/ha, Postemergence section (flood test species), scale 0 to 10, 0 is no effect, 10 is complete control): 0
COC(C)n1c(=O)on(C(=O)N(c2ccccc2)C(C)C)c1=O (stereo not shown) [Compound 441]	0		0	0	0	0	0	0	0	0	0	0	0	0	0	0	0	0	0	0	Crabgrass plant response rating [1, 16]: 0
CC(C)N(C(=O)n1oc(=O)n(CCS(C)(=O)=O)c1=O)c1ccc(F)cc1 [Compound 453]	10		6	6	7		0	0		4	0	0	5	0	0	0	0	0	0	0	
C=CC(CC)n1c(=O)on(C(=O)N(c2ccccc2)C(C)C)c1=O (stereo not shown) [Compound 455]	9		5	10	10		0	0	3	4	0	0	5	4	0	0	0	0	0	0	
CC(C)N(C(=O)n1oc(=O)n(C(CF)CF)c1=O)c1ccc(Cl)cc1 [Compound 468]	9		9	9	9		0	0	0	9	0	0	9	3	0	0	0	0	0	0	
COC(=O)C(C)n1c(=O)on(C(=O)N(c2ccc(Cl)cc2)C(C)C)c1=O (stereo not shown) [Compound 623]																		0	0		Plant response rating, Crabgrass [1, 23]: 0; Crabgrass plant response rating [1, 24]: 0; Plant response rating, Crabgrass [1, 5]: 0; Crabgrass plant response rating ([1]; Postemergence, Rate 1000 g/ha, scale 0 to 10 (0 no effect, 10 complete control)): 3; Crabgrass plant response rating [1, 7]: 0; Plant response rating, Crabgrass [1, 25]: 0; Plant response rating, Crabgrass [1, 26]: 0; Plant response rating, Nutsedge [2, 23]: 0; Nutsedge plant response rating [2, 24]: 0; Nutsedge plant response rating [2, 7]: 0; Plant response rating, Nutsedge [2, 25]: 0; Plant response rating, Nutsedge [2, 27]: 0; Plant response rating, Nutsedge [2, 26]: 0; Barnyardgrass plant response rating ([3]; Pre-emergence, Rate 1000 g/ha, scale 0 to 10 (0 no effect, 10 complete control)): 0; Barnyardgrass plant response rating [3, 28]: 0
CC(C)N(C(=O)n1oc(=O)n(CC(=O)C2CC2)c1=O)c1ccc(Cl)cc1 [Compound 639]																	0	0	0		Plant response rating, Crabgrass [1, 29]: 0; Crabgrass plant response rating [1, 24]: 2; Plant response rating, Crabgrass [1, 5]: 8; Crabgrass plant response rating [1, 17]: 7; Crabgrass plant response rating [1, 7]: 7; Plant response rating, Crabgrass [1, 25]: 9; Plant response rating, Crabgrass [1, 27]: 9; Plant response rating, Nutsedge [2, 29]: 0; Plant response rating, Nutsedge [2, 23]: 0; Nutsedge plant response rating [2, 17]: 0; Nutsedge plant response rating [2, 7]: 0; Plant response rating, Nutsedge [2, 25]: 0; Plant response rating, Nutsedge [2, 27]: 0; Barnyardgrass plant response rating [3, 28]: 0
